Data taken from patent US9750677B2, “Use of metal complexes which are mimetics of SOD as food agents and as cosmetics” (Universitat de València, priority 2014, dated 2017).
Where “and” joins values, the source holds several entries; their conditions need not be identical. Identical values can stand only once.

Test system: Medaka embryos
Assay: Survival analysis using Medaka fish embryos, mortality at 72 hours in H2O2
Format: in vivo, Medaka (Oryzias latipes)
Conditions: stage 8 embryos pre-treated 4 days with 100 μM vitamin C, then 72 hours in 22.5 mM H2O2; for mortality, mean (± standard error in text): 6 replicates
Experimental: Individual adults (strain Cab, Carolina Biological Supply, (North Carolina)), were held in tanks with continuous water flow at 27° C., and a photoperiod of 14 hours of light and 10 hours of darkness. The fish were fed twice a day with Artemia nauplii, which were hatched daily from commercial Sanders® cysts, and with dry food once per day.
Fertilized eggs were collected daily, deposited in Yamamoto solution (0.13 M NaCl, 2.7 mM KCl, 1.8 mM CaCl2 and 0.24 mM NaHCO3, pH 7.3) (Yamamoto T., Medaka (killifish): Biology and strains. 1975, Tokyo: Keigaku Pub. Co), and were kept in the incubator at 26° C. The embryo stage was determined according to the description of Iwamatsu (Iwamatsu T., Stages of normal development in the medaka Oryzias latipes. Mech Dev. 2004, Vol. 121, pages 605-618).
Medaka embryos that were in stage 8 (early morula stage, Iwamatsu, 2004) were separated into 2 groups of 60 embryos and one group of 30 embryos. A group of 60 embryos were treated for 4 days with Pytren-4Q+Mn dissolved in Yamamoto solution at a concentration of 250 μM. The other group of 60 embryos were incubated for 4 days in Yamamoto solution. This group was used as a negative control. The group of 30 embryos, positive control group, were treated for 4 days with a Yamamoto solution of vitamin C, an antioxidant compound, at a concentration of 100 μM. After 4 days of incubation, the embryos were washed with Yamamoto solution. The groups of 60 embryos were separated one by one into two groups of 30 embryos. The embryos of all the groups were individually placed into the wells of 96-well plates, each well containing 200 μl of Yamamoto solution with H2O2, at different concentrations depending on the extension of incubation time at which mortality was observed. […] Thirty embryos of each initial group of 60 embryos and the 30 embryos of the group treated with vitamin C were treated with H2O2 Yamamoto solution at a concentration of 22.5 mM. […] Thirty embryos of each initial group of 60 embryos were treated with H2O2 Yamamoto solution at a concentration of 7.5 mM. […]

## O=C1O[C@H]([C@@H](O)CO)C(O)=C1O [vitamin C]
  mortality, mean (± standard error in text): 25.99±5.25%
Listed as Vitamin C
  mortality, mean (± standard error in text): 25.99%
30 embryos per replicate
  mortality, single replicates: 14.3% and 20.8% (2×) and 40.63% and 43.75% and 15.63%
